In patent US8247170B2, “Detection of penicillin tolerance in Group B Streptococcus: single nucleotide polymorphisms in penicillin binding protein 4” (priority 2008, dated 2012):

Test system: GBS clinical isolates and laboratory strains
Assay: Macrobroth penicillin tolerance assay
Format: cell-based, Group B Streptococcus
Details: then 24 h drug-free; for 100xMIC, regrowth O.D.600: Penicillin G 100×MIC90 48 h; for 300xMIC, regrowth O.D.600: Penicillin G 300×MIC90 48 h; for 10xMIC, regrowth O.D.600: Penicillin G 10×MIC90 48 h; for 30xMIC, regrowth O.D.600: Penicillin G 30×MIC90 48 h
Procedure: Using this modified penicillin tolerance assay, tolerant strains from the GBS clinical isolates can be more efficiently identified. In this macrobroth culture format, 25 ml THB broth GBS cultures (containing clinical isolates) were grown to an early exponential growth phase (˜0.2 OD600). Cell cultures (6 ml) were collected and divided into 4 culture tubes. […] Cell cultures were shaken at 150 rpm in order to maintain cells in suspension for proper growth. Subcultures (1/20 dilution) of cells were put into fresh THB containing […] Penase (i.e., 100 μl of Penase 10,000 U stock into 4 ml THB culture). Subcultures were allowed to grow for 24 hours at 37° C. Cell growth was monitored by OD (see Example 2).
(I) Bacterial Strains and Culture Conditions. GBS strains A909 (serotype IA), 515 (serotype IA), NEM316 (serotype III), COHI (serotype III), 2603V/R (serotype V) and O90R (non-typable) were used in this study. E. coli Top10 cells were used for the recombination experiments. GBS was cultured in Todd Hewitt broth (THB) or Tryptic Soy 5% sheep blood (TS) media and E. coli in Luria-broth (LB) medium or agar. Antibiotics were used at the following concentrations: for GBS—penicillin G (MIC90 0.06 μg ml^−1), ampicillin (MIC90 0.12 μg ml^−1), vancomycin (MIC90 2 μg ml^−1), cefazolin (MIC90 1 μg ml^−1) and chloramphenicol (5 μg ml^−1); for E. coli—ampicillin (50 μg ml^−1) and chloramphenicol (5 μg ml^−1). Both GBS and E. coli cultures were grown at 37° C. (II) Tolerance Using the MBC:MIC Ratio Method. Three GBS laboratory strains (i.e., A909, NEM316, and O90R) were cultured overnight for 18 h at 37° C. in THB. Subcultures in THB were subsequently grown to exponential phase (OD600˜0.3; i.e. 5×10^5 cfu/ml) at 37° C. Cell cultures were then exposed to different concentrations of antibiotics (Penicillin G, Ampicillin, Cefozolin or Vancomycin). […] Cell cultures were dispersed every 18 h before OD600 was measured to determine the lowest concentration of antibiotic with 90% growth inhibition (MIC90). Antibiotic treated cells (8 μl) from each well were re-suspended into PBS (100 μl) and plated (54 μl) on TS agar plates and allowed to grow for an additional 24 h at 37° C. Cell count was performed to determine the lowest concentration of antibiotic with 90% killing of original inoculums (MBC90). (III) Penicillin Killing and Regrowth Tolerance Assay by Microbroth Dilution. Three GBS laboratory strains (i.e., A909, NEM316, and O90R) were cultured overnight for 18 h at 37° C. in THB. Subcultures in THB were subsequently grown to exponential phase (OD600˜0.3) at 37° C. Cell cultures were then exposed to different concentrations of Penicillin G (Sigma, St. Louis, Mo.). […] Cell cultures were dispersed. A 1:20 dilution of cells was re-plated into new wells containing fresh THB with 500 U Penase (to degrade residual penicillin). Cell cultures were allowed to re-grow for an additional 24 h at 37° C. before the OD600 was measured. (IV) Measuring Cell Viability by Determining ATP Concentration. GBS strains were cultured for 18 h at 37° C. in THB. These cells were inoculated into fresh THB and subsequently allowed to grow to exponential phase (OD600 0.25-0.3) at 37° C. One ml of each culture was centrifuged at 5,000×g for 4 min. The cell pellet was re-suspended in ATP-free water. Cellular ATP was extracted using trichloroacetic acid (TCA) (5%) for 2 min and subsequently neutralized with Tris-EDTA-0.1M NaOAc, pH 7.75 to 10×TCA volume. The initial (in.) cellular ATP concentration ([ATP]) was measured using the ENLITEN (Promega) luciferase based reaction kit. THB cultures were then treated with 100×MIC90 Penicillin G for 22 h. The experimental (exp.) cellular ATP was extracted and the concentration was measured as stated above. Based on the calculations ([ATP] exp.)/([ATP] in./O.D. in.), differences in viability were equated with the change in [ATP]. (V) Measuring Penicillin Induced Lysis. Three GBS laboratory strains (A909, NEM316, and O90R) were cultured for 18 h at 37° C. in THB. […]

Structure (SMILES): CC1(C)S[C@@H]2[C@H](NC(=O)Cc3ccccc3)C(=O)N2[C@H]1C(=O)O [Penicillin G]
- 100xMIC, regrowth O.D.600 (GBS strain 47 (III)): −− (“−−” indicates an O.D.600 of 0.001 to 0.099)
- 300xMIC, regrowth O.D.600 (GBS strain 47 (III)): −− (“−−” indicates an O.D.600 of 0.001 to 0.099)
- 10xMIC, regrowth O.D.600 (GBS strain 60 (NT)): + (“+” indicates an O.D.600 of 0.100 to 0.250)
- 30xMIC, regrowth O.D.600 (GBS strain 60 (NT)): ++ (“++” indicates an O.D.600 of 0.251 to 0.750)
- 100xMIC, regrowth O.D.600 (GBS strain 60 (NT)): + (“+” indicates an O.D.600 of 0.100 to 0.250)
- 300xMIC, regrowth O.D.600 (GBS strain 60 (NT)): + (“+” indicates an O.D.600 of 0.100 to 0.250)
- 10xMIC, regrowth O.D.600 (GBS strain 68 (III)): + (“+” indicates an O.D.600 of 0.100 to 0.250)
- 30xMIC, regrowth O.D.600 (GBS strain 68 (III)): −− (“−−” indicates an O.D.600 of 0.001 to 0.099)
- 100xMIC, regrowth O.D.600 (GBS strain 68 (III)): + (“+” indicates an O.D.600 of 0.100 to 0.250)
- 300xMIC, regrowth O.D.600 (GBS strain 68 (III)): + (“+” indicates an O.D.600 of 0.100 to 0.250)
- 10xMIC, regrowth O.D.600 (GBS strain 71 (III)): −− (“−−” indicates an O.D.600 of 0.001 to 0.099)
- 30xMIC, regrowth O.D.600 (GBS strain 71 (III)): −− (“−−” indicates an O.D.600 of 0.001 to 0.099)
- 100xMIC, regrowth O.D.600 (GBS strain 71 (III)): −− (“−−” indicates an O.D.600 of 0.001 to 0.099)
- 300xMIC, regrowth O.D.600 (GBS strain 71 (III)): −− (“−−” indicates an O.D.600 of 0.001 to 0.099)
- 10xMIC, regrowth O.D.600 (GBS strain 90 (Ib)): −− (“−−” indicates an O.D.600 of 0.001 to 0.099)
- 30xMIC, regrowth O.D.600 (GBS strain 90 (Ib)): −− (“−−” indicates an O.D.600 of 0.001 to 0.099)
- 100xMIC, regrowth O.D.600 (GBS strain 90 (Ib)): −− (“−−” indicates an O.D.600 of 0.001 to 0.099)
- 300xMIC, regrowth O.D.600 (GBS strain 90 (Ib)): −− (“−−” indicates an O.D.600 of 0.001 to 0.099)
- 10xMIC, regrowth O.D.600 (GBS strain 91 (III)): −− (“−−” indicates an O.D.600 of 0.001 to 0.099)
- 30xMIC, regrowth O.D.600 (GBS strain 91 (III)): −− (“−−” indicates an O.D.600 of 0.001 to 0.099)
- 100xMIC, regrowth O.D.600 (GBS strain 91 (III)): −− (“−−” indicates an O.D.600 of 0.001 to 0.099)
- 300xMIC, regrowth O.D.600 (GBS strain 91 (III)): −− (“−−” indicates an O.D.600 of 0.001 to 0.099)
- 10xMIC, regrowth O.D.600 (GBS strain 93 (Ib)): −− (“−−” indicates an O.D.600 of 0.001 to 0.099)
- 30xMIC, regrowth O.D.600 (GBS strain 93 (Ib)): −− (“−−” indicates an O.D.600 of 0.001 to 0.099)
- 100xMIC, regrowth O.D.600 (GBS strain 93 (Ib)): −− (“−−” indicates an O.D.600 of 0.001 to 0.099)
- 300xMIC, regrowth O.D.600 (GBS strain 93 (Ib)): −− (“−−” indicates an O.D.600 of 0.001 to 0.099)
- 10xMIC, regrowth O.D.600 (GBS strain 97 (V)): −− (“−−” indicates an O.D.600 of 0.001 to 0.099)
- 30xMIC, regrowth O.D.600 (GBS strain 97 (V)): ++ (“++” indicates an O.D.600 of 0.251 to 0.750)
- 100xMIC, regrowth O.D.600 (GBS strain 97 (V)): ++ (“++” indicates an O.D.600 of 0.251 to 0.750)
- 300xMIC, regrowth O.D.600 (GBS strain 97 (V)): ++ (“++” indicates an O.D.600 of 0.251 to 0.750)
- 10xMIC, regrowth O.D.600 (GBS strain 101 (NT)): −− (“−−” indicates an O.D.600 of 0.001 to 0.099)
- 30xMIC, regrowth O.D.600 (GBS strain 101 (NT)): −− (“−−” indicates an O.D.600 of 0.001 to 0.099)
- 100xMIC, regrowth O.D.600 (GBS strain 101 (NT)): −− (“−−” indicates an O.D.600 of 0.001 to 0.099)
- 300xMIC, regrowth O.D.600 (GBS strain 101 (NT)): −− (“−−” indicates an O.D.600 of 0.001 to 0.099)
- 10xMIC, regrowth O.D.600 (GBS strain 117 (Ia)): + (“+” indicates an O.D.600 of 0.100 to 0.250)
- 30xMIC, regrowth O.D.600 (GBS strain 117 (Ia)): + (“+” indicates an O.D.600 of 0.100 to 0.250)
- 100xMIC, regrowth O.D.600 (GBS strain 117 (Ia)): + (“+” indicates an O.D.600 of 0.100 to 0.250)
- 300xMIC, regrowth O.D.600 (GBS strain 117 (Ia)): + (“+” indicates an O.D.600 of 0.100 to 0.250)
- 10xMIC, regrowth O.D.600 (GBS strain 122 (III)): −− (“−−” indicates an O.D.600 of 0.001 to 0.099)
- 30xMIC, regrowth O.D.600 (GBS strain 122 (III)): −− (“−−” indicates an O.D.600 of 0.001 to 0.099)
- 100xMIC, regrowth O.D.600 (GBS strain 122 (III)): −− (“−−” indicates an O.D.600 of 0.001 to 0.099)
- 300xMIC, regrowth O.D.600 (GBS strain 122 (III)): −− (“−−” indicates an O.D.600 of 0.001 to 0.099)
- 10xMIC, regrowth O.D.600 (GBS strain 127 (Ia)): −− (“−−” indicates an O.D.600 of 0.001 to 0.099)
- 30xMIC, regrowth O.D.600 (GBS strain 127 (Ia)): ++ (“++” indicates an O.D.600 of 0.251 to 0.750)
- 100xMIC, regrowth O.D.600 (GBS strain 127 (Ia)): ++ (“++” indicates an O.D.600 of 0.251 to 0.750)
- 300xMIC, regrowth O.D.600 (GBS strain 127 (Ia)): ++ (“++” indicates an O.D.600 of 0.251 to 0.750)
- 10xMIC, regrowth O.D.600 (GBS strain 129 (V)): −− (“−−” indicates an O.D.600 of 0.001 to 0.099)
- 30xMIC, regrowth O.D.600 (GBS strain 129 (V)): −− (“−−” indicates an O.D.600 of 0.001 to 0.099)
- 100xMIC, regrowth O.D.600 (GBS strain 129 (V)): −− (“−−” indicates an O.D.600 of 0.001 to 0.099)
- 300xMIC, regrowth O.D.600 (GBS strain 129 (V)): −− (“−−” indicates an O.D.600 of 0.001 to 0.099)
- 10xMIC, regrowth O.D.600 (GBS strain 131 (V)): −− (“−−” indicates an O.D.600 of 0.001 to 0.099)
- 30xMIC, regrowth O.D.600 (GBS strain 131 (V)): −− (“−−” indicates an O.D.600 of 0.001 to 0.099)
- 100xMIC, regrowth O.D.600 (GBS strain 131 (V)): −− (“−−” indicates an O.D.600 of 0.001 to 0.099)
- 300xMIC, regrowth O.D.600 (GBS strain 131 (V)): −− (“−−” indicates an O.D.600 of 0.001 to 0.099)
- 10xMIC, regrowth O.D.600 (GBS strain 156 (Ia)): −− (“−−” indicates an O.D.600 of 0.001 to 0.099)
- 30xMIC, regrowth O.D.600 (GBS strain 156 (Ia)): −− (“−−” indicates an O.D.600 of 0.001 to 0.099)
- 100xMIC, regrowth O.D.600 (GBS strain 156 (Ia)): −− (“−−” indicates an O.D.600 of 0.001 to 0.099)
- 300xMIC, regrowth O.D.600 (GBS strain 156 (Ia)): ++ (“++” indicates an O.D.600 of 0.251 to 0.750)
- 10xMIC, regrowth O.D.600 (GBS strain 172 (NT)): −− (“−−” indicates an O.D.600 of 0.001 to 0.099)
